The record followed here is ChEMBL document CHEMBL3046284, “Synthesis, insecticidal activity, and QSAR of novel nitromethylene neonicotinoids with tetrahydropyridine fixed cis configuration and exo-ring ether modification” (2007).

Assay [1] has as its system Aphis craccivora. As to the kind of experiment: Insecticidal activity against Aphis craccivora (cowpea aphid) assessed as mortality at 500 mg/l measured after 24 hr. In kind it is functional.
Assay [2] deals with Aphis craccivora. Put plainly: Insecticidal activity against Aphis craccivora (cowpea aphid) assessed as mortality measured after 24 hr. In kind it is functional.

SMILES strings stand for the structures.

What is called mortality is the share of the test organisms that died. As for `O=[N+]([O-])C1=C2N(Cc3ccc(Cl)nc3)CCN2C(OC/C=C\c2ccccc2)CC1` (centres undefined), the mortality at 500 µg/mL in the assay on Aphis craccivora [1] is below 10%.

Regarding `CCOCCOC1CCC([N+](=O)[O-])=C2N(Cc3ccc(Cl)nc3)CCN21` (centres undefined), the mortality at 500 µg/mL with Aphis craccivora [1] is 10.2%.

A word on the LC50: it is the concentration that kills 50% of the test population. For the compound `O=[N+]([O-])C1=C2N(Cc3ccc(Cl)nc3)CCN2C(O)CC1` (centres undefined), in the assay on Aphis craccivora [2], the LC50 was 188 µM. Further, the mortality at 500 µg/mL in the assay with Aphis craccivora [1] is above 90%.

As to `COC1CCC([N+](=O)[O-])=C2N(Cc3ccc(Cl)nc3)CCN21` (centres undefined), in the assay on Aphis craccivora [2], the median lethal concentration (LC50) is 132 µM. Besides, the mortality at 500 µg/mL with Aphis craccivora [1] is above 90%.

Take `CCOC1CCC([N+](=O)[O-])=C2N(Cc3ccc(Cl)nc3)CCN21` (centres undefined): in the assay on Aphis craccivora [2], the LC50 worked out at 96 µM. Further, the mortality at 500 µg/mL with Aphis craccivora [1] is above 90%.

On to `CCCOC1CCC([N+](=O)[O-])=C2N(Cc3ccc(Cl)nc3)CCN21` (centres undefined), for which the LC50 in the assay on Aphis craccivora [2] turned out to be 105 µM. The mortality at 500 µg/mL in the assay with Aphis craccivora [1] is above 90%.

Consider `CC(C)OC1CCC([N+](=O)[O-])=C2N(Cc3ccc(Cl)nc3)CCN21` (centres undefined), for which the LC50 in the assay with Aphis craccivora [2] was found to be 260 µM. In the assay on Aphis craccivora [1], the mortality at 500 µg/mL was above 90%.

As to `O=[N+]([O-])C1=C2N(Cc3ccc(Cl)nc3)CCN2C(OCCCl)CC1` (centres undefined), the mortality at 500 µg/mL in the assay on Aphis craccivora [1] was found to be 44.8%.

Regarding `O=[N+]([O-])C1=C2N(Cc3ccc(Cl)nc3)CCN2C(OCC(F)(F)F)CC1` (centres undefined), the mortality at 500 µg/mL in the assay with Aphis craccivora [1] came out at 10.3%.

Regarding `CCCCOC1CCC([N+](=O)[O-])=C2N(Cc3ccc(Cl)nc3)CCN21` (centres undefined), in the assay on Aphis craccivora [1], the mortality at 500 µg/mL is 77.7%.

On to `CCC(C)OC1CCC([N+](=O)[O-])=C2N(Cc3ccc(Cl)nc3)CCN21` (centres undefined), for which, in the assay with Aphis craccivora [1], the mortality at 500 µg/mL is below 10%.

As for `CC(C)COC1CCC([N+](=O)[O-])=C2N(Cc3ccc(Cl)nc3)CCN21` (centres undefined), the mortality at 500 µg/mL in the assay on Aphis craccivora [1] was found to be 76.3%.

For the compound `CC(C)(C)OC1CCC([N+](=O)[O-])=C2N(Cc3ccc(Cl)nc3)CCN21` (centres undefined), the mortality at 500 µg/mL in the assay on Aphis craccivora [1] is 72.8%.

On to `CCCCCOC1CCC([N+](=O)[O-])=C2N(Cc3ccc(Cl)nc3)CCN21` (centres undefined), for which the mortality at 500 µg/mL in the assay with Aphis craccivora [1] is 62.6%.

For the compound `CC(C)CCOC1CCC([N+](=O)[O-])=C2N(Cc3ccc(Cl)nc3)CCN21` (centres undefined), the mortality at 500 µg/mL in the assay with Aphis craccivora [1] amounted to 24.4%.

As to `O=[N+]([O-])C1=C2N(Cc3ccc(Cl)nc3)CCN2C(OCc2ccccc2)CC1` (centres undefined), in the assay on Aphis craccivora [2], the LC50 worked out at 573 µM. In the assay on Aphis craccivora [1], the mortality at 500 µg/mL is above 90%.

As for `O=[N+]([O-])C1=C2N(Cc3ccc(Cl)nc3)CCN2C(OCc2ccc(Cl)nc2)CC1` (centres undefined), the LC50 with Aphis craccivora [2] amounted to 1150 µM. Further, in the assay with Aphis craccivora [1], the mortality at 500 µg/mL turned out to be 50%.

Regarding `C#CCOC1CCC([N+](=O)[O-])=C2N(Cc3ccc(Cl)nc3)CCN21` (centres undefined), in the assay on Aphis craccivora [1], the mortality at 500 µg/mL was 46.9%.

On to `CC(C)=CCOC1CCC([N+](=O)[O-])=C2N(Cc3ccc(Cl)nc3)CCN21` (centres undefined), for which the mortality at 500 µg/mL with Aphis craccivora [1] stood at 15.9%.

On to `COC1CC(C)C([N+](=O)[O-])=C2N(Cc3ccc(Cl)nc3)CCN21` (centres undefined), for which the LC50 with Aphis craccivora [2] amounted to 148 µM. Besides, in the assay with Aphis craccivora [1], the mortality at 500 µg/mL is above 90%.

`CC1CC(O)N2CCN(Cc3ccc(Cl)nc3)C2=C1[N+](=O)[O-]` (centres undefined): the LC50 in the assay on Aphis craccivora [2] came to 97 µM. In addition, in the assay with Aphis craccivora [1], the mortality at 500 µg/mL is above 90%.

For the compound `CCOC1CC(C)C([N+](=O)[O-])=C2N(Cc3ccc(Cl)nc3)CCN21` (centres undefined), the LC50 in the assay with Aphis craccivora [2] amounted to 186 µM. In the assay on Aphis craccivora [1], the mortality at 500 µg/mL was above 90%.

`O=[N+]([O-])/N=C1\NCCN1Cc1ccc(Cl)nc1` [IMIDACLOPRID]: in the assay on Aphis craccivora [2], the LC50 is 35 µM. Besides, in the assay with Aphis craccivora [1], the mortality at 500 µg/mL is above 90%.
